Earlier results in EP0127274A2, “Esters of metronidazole and compositions containing them” (THE UPJOHN COMPANY, priority 1983, dated 1984).

Details: background statement

- solubility in water: approximately 10 mg/ml
Compound: Cc1ncc([N+](=O)[O-])n1CCO [metronidazole, 1-(O-hydroxyethyl)-2-methyl-5-nitroimidazole]
